Laboratory results: patent US5955357A, “In-vitro-derived human neutrophil precursor cells” (Nexell Therapeutics Inc., priority 1994, dated 1999)

B1: G-CSF: hematopoietic growth factor, granulocyte colony-stimulating factor (protein, UniProt P09919 31-207, looked up)
Granulocyte …: TPLGPASSLPQSFLLKCLEQVRKIQGDGAALQEKLVSECATYKLCHPEELVLLGHSLGIPWAPLSSCPSQALQLAGCLSQLHSGLFLYQGLLQALEGISPELGPTLDTLQLDVADFATTIWQQMEELGMAPALQPTQGAMPAFASAFQRRAGGVLVASHLQSFLEVSYRVLRHLAQP

System: CD15+CD11b- neutrophil precursors
Assay: single cell proliferation assay of sorted neutrophil precursors in hematopoietic growth factors
Format: cell-based, human
Conditions: after 10 days in culture; for Percent of Total Cells Evaluated, 0 Cells/Wells / Percent of Total Cells Evaluated, 1-4 Cells/Well / Percent of Total Cells Evaluated, 5-8 Cells/Well / Percent of Total Cells Evaluated, 9-16 Cells/Well / Percent of Total Cells Evaluated, 17-32 Cells/Well / Percent of Total Cells Evaluated, >32 Cells/Well: Table V, individual growth factors, neutrophil precursors
Method: Apheresis samples were collected after peripheral blood counts reached 1000/ul from patients mobilized with G-CSF (10 ug/kg/day) following cyclophosphamide/VP16 chemotherapy. Apheresis was performed using the CS-3000® blood cell separator (Fenwal Division, Baxter Healthcare, Deerfield, Ill.). Bone marrow was collected from normal volunteers.
The assays were performed by sorting single cells based upon expression of CD15 and CD11b by flow cytometry into multiwell plates containing 10 ul of culture media with various growth factor combinations. […] The same studies were performed on fresh bone marrow for comparison. Plates containing the sorted cells were incubated at 37° C. and the number of cells in each well were counted on days 1, 3 and 10. For further characterization of antigenic expression, cells at varying timepoints of culture were stained with the following antigenic combinations: FITC-CD15/PE-CD11b, FITC-CD71/PE-CD45RA,and FITC-CD67/PE-CD34.
To assess the absolute requirement of growth factors on the proliferation of neutrophil precursors, single cells were plated in the presence or absence of all four growth factors described above. The single cell cultures were incubated for an additional 10 days and then each well was scored for the number of total cells. The wells were categorized according to the number of cells per well.
To determine which single growth factor or combination of growth factors would support proliferation of neutrophil precursors, various combinations of the above growth factors were tested in the single cell proliferation assay.

Molecule	Percent of Total Cells Evaluated, 0 Cells/Wells [%]	Percent of Total Cells Evaluated, 1-4 Cells/Well [%]	Percent of Total Cells Evaluated, 5-8 Cells/Well [%]	Percent of Total Cells Evaluated, 9-16 Cells/Well [%]	Percent of Total Cells Evaluated, 17-32 Cells/Well [%]	Percent of Total Cells Evaluated, >32 Cells/Well [%]	fraction of proliferating neutrophil precursors and extent of proliferation, compared with other growth factors (result in words)
GM-CSF: hematopoietic growth factor, granulocyte and macrophage colony-stimulating factor	33	44	12	6	4	1	–
SCF: hematopoietic growth factor, stem cell factor	25	52	13	8	2	1	–
B1	22	40	10	10	6	13	enhances proliferation to a greater extent then either GM-CSF, IL-3 or SCF alone
